The source of these data is US20240182472A1, “INDAZOLE PYRIDONE COMPOUNDS AND USES THEREOF” (Bluejay Therapeutics, Inc., priority 2022, published 2024).

Where two headings read alike, the source gives them in different places.

One series deals with HBV S-antigen secretion. The series is described as follows: HBsAg assay (HepG2 HBV S-antigen secretion biological assay). Type of series: cell-based. As to conditions: Hepatitis B virus, HepG2.2.15, 72 h, read-out: EC50, HBV S-antigen secretion. As for the experimental part:
HepG2.2.15 cells were grown in flasks microscopically and seeded into 96-well plates at a concentration of 6.0×10^4 cells/well and incubated at 37° C., 5% CO2 overnight.
Source plate preparation. The stock concentration of reference compound and test compounds is 20 mM. Firstly, manually diluted the compound to obtain the first concentration points of 10 μM and 200 μM, respectively. Then a 3-fold, 8 points serial dilution is performed to obtain the 200× source plate.
Source plate compounds were pipetted as follows: 3 μL 200× source plate compounds into sterile 2 mL 96 well plate which contain 297 μL 2% FBS Medium, mix well and transfer 100 μL/well to corresponding cell culture plates. Therefore, the test conditions of the final compounds is 1 μM initiation, 3-fold serial dilution, and 8 concentration points in duplicate.
Incubate the cells at 37° C., 5% CO2 for three days.
24 hours post-seeding, the cells were treated with 200 μl/well of media containing serially diluted compounds in DMSO. DMSO alone was used as the no drug control. The final DMSO concentration in all wells was 0.5%.
The HBsAg kit (Auto Biology-CL 0310) was used to determine the level of secreted HBVsAg. The HBSAg assay was performed as follows: • a) Blance the ELISA kit at room temperature for 30 minutes. • b) Add 50 μL standard solution, sample, positive and negative control to each well of the microplate in the kit. • c) Add 50 μL HBsAg enzyme conjugate to each well. • d) Attach the plate membrane, oscillate for 60 seconds, and incubate at 37° C. for 60 minutes. • e) Add 350 μL washing buffer to each well, shake slightly, discard liquid, repeat 6 times. Then pat 5 times on an absorbent paper towel to dry the hole. • f) Add 50 μL mixture of reagent A and B to each well. Oscillate the microplate for 10 seconds. • g) Cover the plate membrane and incubate at room temperature for 10 minutes. Read the luminescent signal using Biotek-Synergy 2.
Compounds inhibition against HBsAg at different concentrations are calculated by the following formula:
Inhibition %=(1−value of sample/ave. value of control)×100
50% effective concentrations (EC50) and were calculated with the GraphPad Prism software.

Another series concerns the target T1, OATP1B1 (Homo sapiens, UniProt Q9Y6L6).
T1 construct: host or cells: HEK293 (HEK293-OATP1B1), stably transfected
T1 sequence (Q9Y6L6 1-691): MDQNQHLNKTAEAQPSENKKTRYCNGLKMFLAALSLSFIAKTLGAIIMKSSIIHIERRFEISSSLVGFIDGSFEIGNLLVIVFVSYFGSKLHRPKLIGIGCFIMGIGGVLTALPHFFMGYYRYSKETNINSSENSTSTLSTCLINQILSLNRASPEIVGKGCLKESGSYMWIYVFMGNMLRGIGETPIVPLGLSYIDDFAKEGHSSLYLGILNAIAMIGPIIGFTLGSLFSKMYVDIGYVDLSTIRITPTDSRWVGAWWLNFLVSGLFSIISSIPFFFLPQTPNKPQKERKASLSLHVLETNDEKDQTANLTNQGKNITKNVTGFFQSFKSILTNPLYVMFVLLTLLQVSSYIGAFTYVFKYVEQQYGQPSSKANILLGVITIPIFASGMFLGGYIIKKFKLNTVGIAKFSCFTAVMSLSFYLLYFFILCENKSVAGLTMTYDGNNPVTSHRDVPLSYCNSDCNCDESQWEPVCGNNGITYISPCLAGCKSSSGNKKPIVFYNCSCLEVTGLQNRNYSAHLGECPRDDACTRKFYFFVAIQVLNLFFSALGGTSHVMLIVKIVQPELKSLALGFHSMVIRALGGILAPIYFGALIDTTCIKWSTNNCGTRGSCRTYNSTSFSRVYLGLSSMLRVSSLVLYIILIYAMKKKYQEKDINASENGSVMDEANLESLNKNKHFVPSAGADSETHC
It counts as in vitro ADME. As for the experimental part: (§1) The OATP1B1 and OATP1B3 substrate assays were conducted at Wuxi utilizing the human embryonic kidney cell line, HEK293, stably transfected with human transporter genes. The identification of potential transporter substrates are achieved by measuring the Uptake Fold values in the transfected HEK293-OATP1B1 and OATP1B3 cells line and the HEK293-MOCK cell line in the Presence and Absence of positive inhibitors.
(§2) The objective of this study was to determine whether Compound I.2 and Compound I.6 are potential OATP1B1 and OATP1B3 uptake substrates.
(§3) HEK-293 cells stably expressing the human OATP1B1 and OATP1B3 transporter and the HEK293-MOCK cell line were licensed from GenoMembrane (Kanagawa, Japan). The culture medium was DMEM (HEK293-OATP1B3 cells were maintained in DMEM/F12) supplemented with 10.0% FBS, 500 μg/mL G418 sulfate solution, 100 U/mL penicillin-G and 100 μg/mL streptomycin. Cells were incubated in 5.0% CO2 at 37.0° C. with saturated humidity. HEK293-OATP1B1 (Passage: 19), OATP1B3 (Passage: 19), and HEK293-MOCK (Passage: 14 and 16) were grown to 80.0 to 90.0% confluence in the culture flask. Trypsin/EDTA (0.05%/0.02%, w/v) was added to detach the cells from the flask. The cells were seeded onto 96-well plates with a density of 5.00×10^4 cells/well, and then incubated for 24 hours in 5.0% CO2 at 37.0° C. with saturated humidity before being used in the uptake study.
(§4) Pre-incubation: Cell culture medium was removed from the 96-well plates seeded with either HEK293-OATP1B1 and OATP1B3 or HEK293-MOCK cells, followed by rinsing the cells twice with the warm (37.0° C.) Transport Buffer. The cells were then pre-incubated for 30 min with the Transport Buffer in the Presence and Absence of positive inhibitors in 5.0% CO2 at 37.0° C. with saturated humidity.
(§5) Uptake incubation: At the end of the pre-incubation, the buffers were removed and the cells were treated with Compound I.6 or Compound I.2 at 0.100 or 1.00 μM in the presence and absence of positive inhibitor. In separate wells, the marker substrate for transporter cells were incubated with dosing solution (Table A), all treatments were conducted in triplicate wells in 5.0% CO2 at 37.0° C. with saturated humidity.
(§6) Cell lysing: At the end of the incubations, dosing solution was removed. After removing the remaining dosing solution, the cell was rinsed three times with ice-cold Transport Buffer (2.0-8.0° C.) followed by adding 100 μL cold acetonitrile:methanol (95: 5, v: v) containing internal standard into the cells treated with test compound for bioanalysis. For the cells dosed with positive control, the cells were added 100 μL cold acetonitrile:methanol (95:5, v: v) containing internal standard for bioanalysis. All samples were gently shaken for 30 min. Then for test compound and positive control, 75 μL of the cell lysate was mixed with 75 μL of Transport Buffer and 150 μL of cold acetonitrile:methanol (95:5, v:v) containing internal standard. The lysis sample was centrifuged for 10 min at 3220×g before the supernatant, defined as the terminal sample, was taken for the determination of the intracellular uptake of the test compounds or substrate by LC-MS/MS.
(§7) Uptake Fold was calculated using equation (1)

Another series deals with T2, OATP1B3 (Homo sapiens, UniProt Q9NPD5).
T2 construct: host or cells: HEK293 (HEK293-OATP1B3), stably transfected
T2 sequence (Q9NPD5 1-702): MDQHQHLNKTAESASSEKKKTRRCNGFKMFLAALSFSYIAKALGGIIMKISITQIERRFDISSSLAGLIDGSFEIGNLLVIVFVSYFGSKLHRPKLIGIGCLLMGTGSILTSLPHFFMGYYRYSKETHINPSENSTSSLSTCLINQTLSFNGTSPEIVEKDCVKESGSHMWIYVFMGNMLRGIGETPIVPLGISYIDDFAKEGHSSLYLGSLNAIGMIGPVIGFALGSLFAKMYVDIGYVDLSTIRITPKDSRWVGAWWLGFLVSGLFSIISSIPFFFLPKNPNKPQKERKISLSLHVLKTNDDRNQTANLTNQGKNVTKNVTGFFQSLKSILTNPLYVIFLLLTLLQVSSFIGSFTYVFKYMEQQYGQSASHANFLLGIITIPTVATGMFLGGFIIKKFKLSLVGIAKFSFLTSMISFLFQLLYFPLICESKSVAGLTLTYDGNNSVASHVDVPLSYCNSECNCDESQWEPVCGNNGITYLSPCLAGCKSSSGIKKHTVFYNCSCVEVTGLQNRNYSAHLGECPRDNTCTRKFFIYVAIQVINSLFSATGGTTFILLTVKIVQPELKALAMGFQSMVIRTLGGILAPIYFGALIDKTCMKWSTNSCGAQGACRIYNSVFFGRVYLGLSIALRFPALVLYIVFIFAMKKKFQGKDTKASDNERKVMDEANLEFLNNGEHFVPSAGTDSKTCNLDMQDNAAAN
It counts as in vitro ADME. As for the experimental part:
as §1, §2, §3, §4, §5, §6, §7

The conditions of series [1]: cited from earlier work.
For series [2] the following is noted: monkeys, starting at 4 weeks, more pronounced effect at 13 weeks; cited from earlier work.

Usually EC50 stands for the midpoint of the concentration-response curve. Turning to `CC(C)(C)[C@@H]1Cn2nc3c(OCCCCCCCC(=O)O)cccc3c2-c2cc(=O)c(C(=O)O)cn21` [I.6, (R)-6-(tert-butyl)-10-((7-carboxyheptyl)oxy)-2-oxo-6,7-dihydro-2H-pyrido[2′,1′:3,4]pyrazino[1,2-b]indazole-3-carboxylic acid], the EC50 with HBV S-antigen secretion came to 2.6 ± 0.6 nM. Besides, the Uptake ratio amounted to 11.5 on OATP1B1 (0.1 μM), 18.2 at OATP1B1 (1 μM), 1.74 at OATP1B3 (0.1 μM) and 4.9 at OATP1B3 (1 μM).
With `COCCOc1cc2c(cc1COC)-c1cc(=O)c(C(=O)O)cn1N1[C@@H]2CCC1(C)C` [GS-8873], the “change from baseline of rat caudal nerve NCV, digital NCV, cauda equina latency, digital latency, tibial nerve latency” value in series [1] (13 weeks, daily doses 20 MPK/day and 60 MPK/day) is reported as “greater than 20%”. Also, the “nerve conduction velocity (NCV) of several peripheral nerves” value in series [1] (rats, starting at 4 weeks, more pronounced effect at 13 weeks) is “prolong the nerve conduction velocity”; in series [2] it was “prolong the nerve conduction velocity”.
Regarding `CC(C)(C)[C@@H]1Cn2nc3c(OCCCCCCC(=O)O)cccc3c2-c2cc(=O)c(C(=O)O)cn21` [I.2, (R)-6-(tert-butyl)-10-((6-carboxyhexyl)oxy)-2-oxo-6,7-dihydro-2H-pyrido[2′,1′:3,4]pyrazino[1,2-b]indazole-3-carboxylic acid], the EC50 in the series with HBV S-antigen secretion was 6.5 ± 2.5 nM. In addition, the Uptake ratio was determined as 2.87 at OATP1B1 (0.1 μM), 1.10 at OATP1B1 (1 μM), 2.23 at OATP1B3 (0.1 μM) and 2.34 on OATP1B3 (1 μM).
